System in one series: not listed separately
Put plainly: Excitation and fluorescence emission wavelength measurement. In kind it is physicochemical. Further details: Stokes shift (λem − λex): unit not given here. The note with it: aqueous solution: 10 mg/mL solution in DMSO diluted 500-fold with purified water. The procedure: It should be noted that the excitation wavelength and the fluorescence emission wavelength of the staining compound were determined by measuring an aqueous solution, which had been obtained by diluting 500-fold a 10 mg/mL solution of the staining compound in DMSO with purified water, with a fluorescence spectrophotometer FL 4500 manufactured by Hitachi High-Technologies Corporation.
Consider `COc1ccc2cc(N3c4ccc(/C=C(\C#N)C(=O)O)cc4C4CCCC43)ccc2c1` (stereo not shown) [Dye 6], for which the Excitation wavelength λex stood at 474 nm, the Fluorescence emission wavelength λem turned out to be 610 nm and the “Stokes shift (λem − λex)” value is recorded as 136.
In the case of `CCN1C(=O)/C(=c2\s/c(=C/c3ccc4c(c3)C3CCCC3N4c3ccc(SC)cc3)c(=O)n2CC(=O)O)SC1=S` (stereo not shown) [Dye 18], the Excitation wavelength λex came out at 570 nm, the Fluorescence emission wavelength λem was 699 nm and the “Stokes shift (λem − λex)” value was 129.
For `O=C(O)C[n+]1c(/C=C/c2cc(Br)c3c(c2)C2CCCC2N3c2ccccc2)sc2ccccc21` (stereo not shown) [Dye 23], the Excitation wavelength λex was 545 nm, the Fluorescence emission wavelength λem is 636 nm and the “Stokes shift (λem − λex)” value worked out at 91.
Take `C[n+]1c(/C=c2\s/c(=C/c3ccc4c(c3)C3CCCC3N4c3ccc(C=C(c4ccccc4)c4ccccc4)cc3)c(=O)n2CC(=O)O)sc2ccccc21` (stereo not shown) [Dye 136]: the Excitation wavelength λex was determined as 560 nm, the Fluorescence emission wavelength λem was 760 nm and the “Stokes shift (λem − λex)” value is 200.
In the case of `CCn1c(=O)/c(=C\c2ccc3c(c2)C2CCCC2N3c2ccccc2)s/c1=C1/SC(=S)N(CC(=O)O)C1=O` (stereo not shown) [Dye 137], the Excitation wavelength λex amounted to 590 nm, the Fluorescence emission wavelength λem was 700 nm and the “Stokes shift (λem − λex)” value is given as 110.

The test system of another series is Zebrafish juveniles. Nature of the series: In vivo labelling of Zebrafish juveniles with probe for biological specimen. Further details: key to Staining property: +++: stained; −: no stained; key to Fluorescence sensitivity: +++: strongly observed; ++: moderately observed; +: weakly observed; −: no stained. Conditions: 10 ng/mL in water, 1 hour, stereoscopic microscope. In a few lines:
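Five zebrafish juveniles were immersed in distilled water containing staining compound at 10 ng/mL (DMSO solution) for 1 hour. They were then washed three times with Egg Water, immobilised in 3% methylcellulose and imaged by stereomicroscope. Staining and fluorescence intensity were scored visually on a +++ to − scale.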
For `CCN1C(=O)/C(=c2\s/c(=C/c3ccc4c(c3)C3CCCC3N4c3ccc(SC)cc3)c(=O)n2CC(=O)O)SC1=S` (stereo not shown) [Dye 18], the “Site(s) to be labelled” value was “blood vessel, gallbladder, and gastrointestinal”.
In the case of `O=C(O)C[n+]1c(/C=C/c2cc(Br)c3c(c2)C2CCCC2N3c2ccccc2)sc2ccccc21` (stereo not shown) [Dye 23], the “Site(s) to be labelled” value is reported as “nose”.
Turning to `C[n+]1c(/C=c2\s/c(=C/c3ccc4c(c3)C3CCCC3N4c3ccc(C=C(c4ccccc4)c4ccccc4)cc3)c(=O)n2CC(=O)O)sc2ccccc21` (stereo not shown) [Dye 136], the “Site(s) to be labelled” value is reported as “gastrointestinal tract”.
On the same count and under the same terms, next, `CCn1c(=O)/c(=C\c2ccc3c(c2)C2CCCC2N3c2ccccc2)s/c1=C1/SC(=S)N(CC(=O)O)C1=O` (stereo not shown) [Dye 137]: “gallbladder and gastrointestinal tract”.

Staying with this series, now noted: 10 ng/mL, 1 hour, fluorescence intensity visually evaluated.
Take `COc1ccc2cc(N3c4ccc(/C=C(\C#N)C(=O)O)cc4C4CCCC43)ccc2c1` (stereo not shown) [Dye 6]: the Fluorescence sensitivity result is “+++”.
The same measure, in the same setting: then `CCN1C(=O)/C(=c2\s/c(=C/c3ccc4c(c3)C3CCCC3N4c3ccc(SC)cc3)c(=O)n2CC(=O)O)SC1=S` (stereo not shown) [Dye 18], with “+++”.
Regarding `O=C(O)C[n+]1c(/C=C/c2cc(Br)c3c(c2)C2CCCC2N3c2ccccc2)sc2ccccc21` (stereo not shown) [Dye 23], the Fluorescence sensitivity result is reported as “+++”.
As to `C[n+]1c(/C=c2\s/c(=C/c3ccc4c(c3)C3CCCC3N4c3ccc(C=C(c4ccccc4)c4ccccc4)cc3)c(=O)n2CC(=O)O)sc2ccccc21` (stereo not shown) [Dye 136], the Fluorescence sensitivity entry was “+++”.
Take `CCn1c(=O)/c(=C\c2ccc3c(c2)C2CCCC2N3c2ccccc2)s/c1=C1/SC(=S)N(CC(=O)O)C1=O` (stereo not shown) [Dye 137]: the Fluorescence sensitivity entry was “+++”.

Still in this series, the particulars now being: 10 ng/mL, 1 hour, visually evaluated.
With `COc1ccc2cc(N3c4ccc(/C=C(\C#N)C(=O)O)cc4C4CCCC43)ccc2c1` (stereo not shown) [Dye 6], the Staining property result is recorded as “+++”.
As for `CCN1C(=O)/C(=c2\s/c(=C/c3ccc4c(c3)C3CCCC3N4c3ccc(SC)cc3)c(=O)n2CC(=O)O)SC1=S` (stereo not shown) [Dye 18], the Staining property entry was “+++”.
On the same count and under the same terms, then `O=C(O)C[n+]1c(/C=C/c2cc(Br)c3c(c2)C2CCCC2N3c2ccccc2)sc2ccccc21` (stereo not shown) [Dye 23], with “+++”; and `C[n+]1c(/C=c2\s/c(=C/c3ccc4c(c3)C3CCCC3N4c3ccc(C=C(c4ccccc4)c4ccccc4)cc3)c(=O)n2CC(=O)O)sc2ccccc21` (stereo not shown) [Dye 136], with “+++”.
`CCn1c(=O)/c(=C\c2ccc3c(c2)C2CCCC2N3c2ccccc2)s/c1=C1/SC(=S)N(CC(=O)O)C1=O` (stereo not shown) [Dye 137]: the Staining property result is listed as “+++”.

Another series relates to human small intestine section. Put plainly: In vitro labelling of human frozen tissue section slide. Type of series: cell-based. Further details: key to Staining property: +++: stained; −: no stained; key to Fluorescence sensitivity: +++: strongly observed; ++: moderately observed; +: weakly observed; −: no stained. The note with it: 10 ng/mL aqueous solution, 1 hour. As for the experimental part:
(§1) A human frozen tissue section slide (manufactured by BioChain Institute, Inc.) shown in Table 3 was immersed in a 10 ng/mL aqueous solution of each of the staining compounds shown in Table 3 for 1 hour. Next, the slide was washed three times with PBS for 10 minutes, mounted with Fluoromount G (manufactured by Southern Biotechnology), and then covered with a cover glass.
Regarding `CCN1C(=O)/C(=c2\s/c(=C/c3ccc4c(c3)C3CCCC3N4c3ccc(SC)cc3)c(=O)n2CC(=O)O)SC1=S` (stereo not shown) [Dye 18], the Fluorescence sensitivity result is listed as “+++” and the Staining property result is on record as “+++”.

The subject of the next series is human liver tumor section. The description is as above. Type of series: cell-based. Further details: key to Staining property: +++: stained; −: no stained; key to Fluorescence sensitivity: +++: strongly observed; ++: moderately observed; +: weakly observed; −: no stained. The note with it: 10 ng/mL aqueous solution, 1 hour. The procedure:
as §1
Consider `O=C(O)C[n+]1c(/C=C/c2cc(Br)c3c(c2)C2CCCC2N3c2ccccc2)sc2ccccc21` (stereo not shown) [Dye 23], for which the Fluorescence sensitivity result is “+++” and the Staining property entry is recorded as “+++”.

System in a further series: not listed separately
Nature of the series: Storage stability of staining compound solution in DMSO. In kind it is physicochemical. Conditions: 10 ng/mL in DMSO, closed glass container, normal temperature, 1 month; rate of change of absorbance and fluorescence intensity. In a few lines:
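Compounds held as 10 ng/mL DMSO solutions in closed glass containers at normal temperature for 1 month. Rates of change in absorbance and fluorescence intensity at a given wavelength versus start were scored: +++ <5%, ++ 5–15%, − >15%.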
As to `COc1ccc2cc(N3c4ccc(/C=C(\C#N)C(=O)O)cc4C4CCCC43)ccc2c1` (stereo not shown) [Dye 6], the Storage stability result is “+++ (rates of change of the absorbance and the fluorescence intensity are less than 5%, and thus, the storage stability is highly excellent)”.
On the same count and under the same terms, next, `CCN1C(=O)/C(=c2\s/c(=C/c3ccc4c(c3)C3CCCC3N4c3ccc(SC)cc3)c(=O)n2CC(=O)O)SC1=S` (stereo not shown) [Dye 18]: “+++ (rates of change of the absorbance and the fluorescence intensity are less than 5%, and thus, the storage stability is highly excellent)”; `O=C(O)C[n+]1c(/C=C/c2cc(Br)c3c(c2)C2CCCC2N3c2ccccc2)sc2ccccc21` (stereo not shown) [Dye 23]: “+++ (rates of change of the absorbance and the fluorescence intensity are less than 5%, and thus, the storage stability is highly excellent)”.
`C[n+]1c(/C=c2\s/c(=C/c3ccc4c(c3)C3CCCC3N4c3ccc(C=C(c4ccccc4)c4ccccc4)cc3)c(=O)n2CC(=O)O)sc2ccccc21` (stereo not shown) [Dye 136]: the Storage stability entry was “+++ (rates of change of the absorbance and the fluorescence intensity are less than 5%, and thus, the storage stability is highly excellent)”.
For `CCn1c(=O)/c(=C\c2ccc3c(c2)C2CCCC2N3c2ccccc2)s/c1=C1/SC(=S)N(CC(=O)O)C1=O` (stereo not shown) [Dye 137], the Storage stability entry was “+++ (rates of change of the absorbance and the fluorescence intensity are less than 5%, and thus, the storage stability is highly excellent)”.

For a further series, the system named is Zebrafish liver section. Put plainly: Ex vivo labelling: tissue section of stained Zebrafish. Further details: key to Staining property: +++: stained; −: no stained; key to Fluorescence sensitivity: +++: strongly observed; ++: moderately observed; +: weakly observed; −: no stained. Conditions: 50 μm, fish stained as in Example 5, PFA fixed. The procedure: Zebrafish which had been stained by the operation in Example 5 was taken out and fixed with a 4% solution of paraformaldehyde (PFA) in PBS. After that, a tissue section having a thickness of 50 μm was prepared with a linear slicer PRO7 (manufactured by Dosaka EM Co., Ltd.) (Table 3). The section was collected on an MAS-coated slide glass (manufactured by Matsunami Glass Ind., Ltd.), mounted with Fluoromount G (manufactured by Southern Biotechnology), and then covered with a cover glass.
As to `COc1ccc2cc(N3c4ccc(/C=C(\C#N)C(=O)O)cc4C4CCCC43)ccc2c1` (stereo not shown) [Dye 6], the Fluorescence sensitivity entry is given as “+++” and the Staining property result is listed as “+++”.
